Data reported in article PMC6934184, “Selective DNA-PKcs inhibition extends the therapeutic index of localized radiotherapy and chemotherapy” (The Journal of Clinical Investigation, 2019).

Target: T1, ABL1 Q252H (Homo sapiens, UniProt P00519, Q252H)
T1 construct: purchased Thermo Fisher Scientific (Life Technologies) SelectScreen
Assay: SelectScreen LanthaScreen
Format: binding
Conditions: read-out: % displacement
Procedure, shortened: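 SelectScreen broad panel; activity (Z'LYTE, Adapta) plus binding formats. ATP: Km app for CSF1R Z'LYTE; 10 for CAMK1 Adapta. Readout = % per kinase.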

CN(C(=O)CN1CCOCC1)c1ccc2sc3c(-c4cccc5c(=O)cc(N6CC7CCC(C6)O7)oc45)cccc3c2c1 [NU5455]
inhibition at 1 µM: 1.1%
